Assay [1] has as its system HCT-116. Briefly: Induction of cell cycle arrest in human HCT-116 assessed as increase in G2/M phase cells at 1 uM incubated for 48 hrs by flow cytometric analysis (reference value: 23.70%). It counts as functional.
In assay [2] the test system is HCT-116. Briefly: Induction of ROS production in human HCT-116 cells by flow cytometric analysis. Conditions: dose 0.5-1 µM. In kind it is functional, cell-based. For orientation: A flow cytometer gives signals particle by particle.
Assay [3] concerns HCT-116. Briefly: Induction of apoptosis in human HCT-116 cells assessed as late apoptotic cells at 1 uM incubated for 24 hrs by Annexin V-FITC/PI staining based flow cytometry analysis (reference value: 0.323%). It counts as functional.

The structures appear in SMILES notation.

As to `O=C(CCCCCCNc1nc2ccccc2nc1-c1nc2ccccc2o1)NO`, the figures for the Activity in the assay on HCT-116 [1], with HCT-116 [2] and with HCT-116 [3] were 39.64%, “Dose-Dependent Effect” and 17.3%, respectively.

Values taken from ChEMBL document CHEMBL5257106, “Design, synthesis, and biological evaluation of novel HDAC inhibitors with a 3-(benzazol-2-yl)quinoxaline framework” (Bioorg Med Chem Lett, 2023).
